Laboratory results taken from ChEMBL document CHEMBL3132769, “Fragment growing to retain or alter the selectivity of anchored kinase hinge-binding fragments” (Medchemcomm, 2014).

Assays:
[1] = biological target: T1, Inhibitor of nuclear factor kappa-B kinase subunit beta (Homo sapiens) (UniProt O14920); assay: Inhibition of human full length IKK beta expressed in baculovirus assessed as substrate phosphorylation using fluorescence-labelled peptides as substrate at 0.1 uM after 90 mins by microfluidic peptide phosphorylation assay
T1 sequence (whole entry): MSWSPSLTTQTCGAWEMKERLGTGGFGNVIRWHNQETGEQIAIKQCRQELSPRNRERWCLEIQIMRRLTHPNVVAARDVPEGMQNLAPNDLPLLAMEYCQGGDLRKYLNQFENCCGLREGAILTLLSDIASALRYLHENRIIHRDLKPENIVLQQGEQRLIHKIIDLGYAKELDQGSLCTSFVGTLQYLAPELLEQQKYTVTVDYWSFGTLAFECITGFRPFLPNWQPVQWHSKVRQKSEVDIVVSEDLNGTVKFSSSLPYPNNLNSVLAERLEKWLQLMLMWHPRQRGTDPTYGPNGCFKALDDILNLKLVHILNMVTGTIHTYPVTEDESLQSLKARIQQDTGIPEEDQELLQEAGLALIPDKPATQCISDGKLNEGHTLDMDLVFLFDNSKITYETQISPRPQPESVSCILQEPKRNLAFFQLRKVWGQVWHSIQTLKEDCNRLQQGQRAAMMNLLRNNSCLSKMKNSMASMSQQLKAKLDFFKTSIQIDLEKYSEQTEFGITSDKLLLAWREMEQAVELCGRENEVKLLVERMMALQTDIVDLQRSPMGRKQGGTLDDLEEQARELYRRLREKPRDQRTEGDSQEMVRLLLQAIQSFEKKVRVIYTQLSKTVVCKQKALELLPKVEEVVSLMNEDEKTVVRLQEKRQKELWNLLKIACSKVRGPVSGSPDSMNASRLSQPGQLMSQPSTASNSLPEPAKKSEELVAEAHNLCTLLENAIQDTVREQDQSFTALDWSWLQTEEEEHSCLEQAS

[2] = biological target: Ribosomal protein S6 kinase alpha-1 (Homo sapiens) (UniProt Q15418); assay: Inhibition of human full length RSK1 expressed in baculovirus assessed as substrate phosphorylation using fluorescence-labelled peptides as substrate at 70 uM after 90 mins by microfluidic peptide phosphorylation assay
Chain of Ribosomal protein S6 kinase alpha-1 (Homo sapiens) (Q15418 whole entry, the tested form may be a part): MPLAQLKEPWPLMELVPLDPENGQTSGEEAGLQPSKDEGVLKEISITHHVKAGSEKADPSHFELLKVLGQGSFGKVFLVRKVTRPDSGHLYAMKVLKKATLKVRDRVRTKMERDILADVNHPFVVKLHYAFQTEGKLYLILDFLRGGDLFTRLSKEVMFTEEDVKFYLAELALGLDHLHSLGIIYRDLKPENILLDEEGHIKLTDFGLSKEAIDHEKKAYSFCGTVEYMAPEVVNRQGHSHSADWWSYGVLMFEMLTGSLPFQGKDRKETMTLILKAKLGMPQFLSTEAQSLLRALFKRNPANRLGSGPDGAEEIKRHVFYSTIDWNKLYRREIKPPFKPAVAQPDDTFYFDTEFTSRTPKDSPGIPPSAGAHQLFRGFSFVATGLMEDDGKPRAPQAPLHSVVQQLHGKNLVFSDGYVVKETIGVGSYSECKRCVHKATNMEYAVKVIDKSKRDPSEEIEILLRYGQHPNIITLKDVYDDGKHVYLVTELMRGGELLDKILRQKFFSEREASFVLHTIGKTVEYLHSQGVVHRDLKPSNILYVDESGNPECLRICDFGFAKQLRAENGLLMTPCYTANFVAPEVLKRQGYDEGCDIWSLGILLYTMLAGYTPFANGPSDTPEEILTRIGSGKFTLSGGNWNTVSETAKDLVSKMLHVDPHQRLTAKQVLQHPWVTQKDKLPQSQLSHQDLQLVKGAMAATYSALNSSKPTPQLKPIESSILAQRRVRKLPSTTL

[3] = biological target: Protein kinase C gamma type (Homo sapiens) (UniProt P05129); assay: Inhibition of human truncated PKC gamma expressed in baculovirus assessed as substrate phosphorylation using fluorescence-labelled peptides as substrate at 70 uM after 90 mins by microfluidic peptide phosphorylation assay
[4] = biological target: Vascular endothelial growth factor receptor 2 (Homo sapiens) (UniProt P35968); assay: Inhibition of human KDR cytoplasmic domain expressed in baculovirus assessed as substrate phosphorylation using fluorescence-labelled peptides as substrate at 70 uM after 90 mins by microfluidic peptide phosphorylation assay
[5] = biological target: Mitogen-activated protein kinase kinase kinase kinase 4 (Homo sapiens) (UniProt O95819); assay: Inhibition of human HGK catalytic domain expressed in baculovirus assessed as substrate phosphorylation using fluorescence-labelled peptides as substrate at 70 uM after 90 mins by microfluidic peptide phosphorylation assay
Chain of Mitogen-activated protein kinase kinase kinase kinase 4 (Homo sapiens) (O95819 2-1239 limits assumed): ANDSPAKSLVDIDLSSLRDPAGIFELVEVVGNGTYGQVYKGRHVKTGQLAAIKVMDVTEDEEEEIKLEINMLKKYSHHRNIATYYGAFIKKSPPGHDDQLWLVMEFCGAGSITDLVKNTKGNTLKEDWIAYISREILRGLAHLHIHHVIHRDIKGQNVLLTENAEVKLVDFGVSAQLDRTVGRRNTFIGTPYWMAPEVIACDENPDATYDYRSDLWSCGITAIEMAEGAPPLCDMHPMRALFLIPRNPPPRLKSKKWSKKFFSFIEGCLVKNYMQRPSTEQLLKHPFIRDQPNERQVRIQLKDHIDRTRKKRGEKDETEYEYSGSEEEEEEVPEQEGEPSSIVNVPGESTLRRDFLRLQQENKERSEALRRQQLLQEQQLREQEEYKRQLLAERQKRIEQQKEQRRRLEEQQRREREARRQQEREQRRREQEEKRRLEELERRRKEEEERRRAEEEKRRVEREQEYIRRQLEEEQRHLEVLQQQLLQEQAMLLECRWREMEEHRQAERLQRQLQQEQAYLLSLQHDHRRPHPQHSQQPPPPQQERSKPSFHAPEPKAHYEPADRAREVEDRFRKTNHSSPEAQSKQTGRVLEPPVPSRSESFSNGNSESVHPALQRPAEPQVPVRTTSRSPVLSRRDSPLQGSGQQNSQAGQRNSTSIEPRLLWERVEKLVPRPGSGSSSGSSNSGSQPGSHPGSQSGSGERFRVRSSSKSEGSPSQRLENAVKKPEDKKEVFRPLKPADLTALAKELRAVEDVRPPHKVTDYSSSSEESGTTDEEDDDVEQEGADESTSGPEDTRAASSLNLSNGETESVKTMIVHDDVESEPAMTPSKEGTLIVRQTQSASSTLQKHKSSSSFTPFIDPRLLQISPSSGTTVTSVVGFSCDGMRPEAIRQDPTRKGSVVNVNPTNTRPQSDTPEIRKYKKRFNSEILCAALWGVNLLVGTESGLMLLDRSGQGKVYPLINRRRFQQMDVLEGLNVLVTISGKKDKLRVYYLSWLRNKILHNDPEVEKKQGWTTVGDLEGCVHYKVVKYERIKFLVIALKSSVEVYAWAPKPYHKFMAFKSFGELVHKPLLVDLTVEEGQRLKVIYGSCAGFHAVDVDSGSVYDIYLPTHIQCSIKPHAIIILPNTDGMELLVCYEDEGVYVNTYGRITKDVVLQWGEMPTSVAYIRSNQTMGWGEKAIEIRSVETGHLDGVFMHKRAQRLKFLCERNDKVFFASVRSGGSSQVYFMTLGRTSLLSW

[6] = biological target: Protein kinase C beta type (Homo sapiens) (UniProt P05771); assay: Inhibition of human truncated PKC beta1 expressed in baculovirus assessed as substrate phosphorylation using fluorescence-labelled peptides as substrate at 8 uM after 90 mins by microfluidic peptide phosphorylation assay
Chain of Protein kinase C beta type (Homo sapiens) (P05771 2-671 limits assumed): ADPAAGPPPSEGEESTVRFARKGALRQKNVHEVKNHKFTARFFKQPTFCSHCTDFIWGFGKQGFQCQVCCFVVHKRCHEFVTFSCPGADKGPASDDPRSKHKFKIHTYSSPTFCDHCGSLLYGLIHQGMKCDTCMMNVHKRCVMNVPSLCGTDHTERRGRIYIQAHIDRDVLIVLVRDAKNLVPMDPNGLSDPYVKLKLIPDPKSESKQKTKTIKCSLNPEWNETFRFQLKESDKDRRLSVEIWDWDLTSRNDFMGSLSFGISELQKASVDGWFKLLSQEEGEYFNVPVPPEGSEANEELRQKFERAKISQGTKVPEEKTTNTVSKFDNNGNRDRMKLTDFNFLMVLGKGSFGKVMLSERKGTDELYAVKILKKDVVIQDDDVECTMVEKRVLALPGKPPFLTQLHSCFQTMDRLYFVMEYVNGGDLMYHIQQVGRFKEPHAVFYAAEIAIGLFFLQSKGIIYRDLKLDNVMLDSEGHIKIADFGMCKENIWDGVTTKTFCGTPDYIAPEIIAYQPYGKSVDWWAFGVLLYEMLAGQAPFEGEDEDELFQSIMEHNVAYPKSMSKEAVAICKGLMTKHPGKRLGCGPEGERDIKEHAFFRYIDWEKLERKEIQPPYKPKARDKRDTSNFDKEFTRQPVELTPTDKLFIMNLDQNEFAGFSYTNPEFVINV

[7] = biological target: Mitogen-activated protein kinase 14 (Homo sapiens) (UniProt Q16539); assay: Inhibition of human truncated p38 alpha expressed in Escherichia coli cell assessed as substrate phosphorylation using fluorescence-labelled peptides as substrate at 1000 uM after 90 mins by microfluidic peptide phosphorylation assay
Chain of Mitogen-activated protein kinase 14 (Homo sapiens) (Q16539 whole entry, the tested form may be a part): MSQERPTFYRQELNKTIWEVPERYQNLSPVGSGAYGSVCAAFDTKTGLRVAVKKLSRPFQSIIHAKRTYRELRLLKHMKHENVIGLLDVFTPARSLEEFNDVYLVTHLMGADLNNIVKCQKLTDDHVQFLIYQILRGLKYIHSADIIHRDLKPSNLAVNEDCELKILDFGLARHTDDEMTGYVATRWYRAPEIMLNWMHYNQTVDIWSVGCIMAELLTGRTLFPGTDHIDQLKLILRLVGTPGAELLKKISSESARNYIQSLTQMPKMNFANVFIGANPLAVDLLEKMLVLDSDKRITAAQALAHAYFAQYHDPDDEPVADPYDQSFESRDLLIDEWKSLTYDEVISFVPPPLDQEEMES

[8] = biological target: T2, Interleukin-1 receptor-associated kinase 4 (Homo sapiens) (UniProt Q9NWZ3); assay: Inhibition of human IRAK4 catalytic domain expressed in baculovirus assessed as substrate phosphorylation using fluorescence-labelled peptides as substrate at 2 uM after 90 mins by microfluidic peptide phosphorylation assay
T2 sequence (whole entry): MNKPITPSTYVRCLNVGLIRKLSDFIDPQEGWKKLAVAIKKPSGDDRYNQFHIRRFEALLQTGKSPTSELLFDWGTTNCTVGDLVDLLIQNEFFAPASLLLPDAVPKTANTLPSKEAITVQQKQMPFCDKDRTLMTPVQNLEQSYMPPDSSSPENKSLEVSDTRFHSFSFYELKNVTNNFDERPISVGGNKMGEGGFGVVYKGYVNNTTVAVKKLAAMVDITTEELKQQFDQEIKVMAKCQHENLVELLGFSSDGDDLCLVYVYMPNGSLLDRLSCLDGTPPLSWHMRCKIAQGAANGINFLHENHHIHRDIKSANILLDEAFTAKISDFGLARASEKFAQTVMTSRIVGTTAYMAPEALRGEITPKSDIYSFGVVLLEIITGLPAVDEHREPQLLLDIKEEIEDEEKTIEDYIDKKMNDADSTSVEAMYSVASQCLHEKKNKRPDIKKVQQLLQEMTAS

[9] = biological target: T3, MAP kinase-activated protein kinase 5 (Homo sapiens) (UniProt Q8IW41); assay: Inhibition of human full length PRAK expressed in baculovirus assessed as substrate phosphorylation using fluorescence-labelled peptides as substrate at 2 uM after 90 mins by microfluidic peptide phosphorylation assay
T3 sequence (whole entry): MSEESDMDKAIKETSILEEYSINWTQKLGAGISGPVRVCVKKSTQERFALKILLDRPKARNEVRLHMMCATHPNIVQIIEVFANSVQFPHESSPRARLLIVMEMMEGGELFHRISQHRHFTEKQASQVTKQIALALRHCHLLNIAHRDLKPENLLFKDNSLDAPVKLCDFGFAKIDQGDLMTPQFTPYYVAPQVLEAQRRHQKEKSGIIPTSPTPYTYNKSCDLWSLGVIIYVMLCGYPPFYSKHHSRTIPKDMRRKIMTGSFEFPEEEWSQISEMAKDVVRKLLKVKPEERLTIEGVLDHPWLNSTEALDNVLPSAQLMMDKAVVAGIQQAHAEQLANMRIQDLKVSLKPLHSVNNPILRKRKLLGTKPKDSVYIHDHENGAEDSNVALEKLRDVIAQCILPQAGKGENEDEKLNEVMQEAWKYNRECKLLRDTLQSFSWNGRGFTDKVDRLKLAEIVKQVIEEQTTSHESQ

[10] = biological target: Tyrosine-protein kinase ABL2 (Homo sapiens) (UniProt P42684); assay: Inhibition of human truncated Arg expressed in baculovirus assessed as substrate phosphorylation using fluorescence-labelled peptides as substrate at 2 uM after 90 mins by microfluidic peptide phosphorylation assay
Chain of Tyrosine-protein kinase ABL2 (Homo sapiens) (P42684 whole entry, the tested form may be a part): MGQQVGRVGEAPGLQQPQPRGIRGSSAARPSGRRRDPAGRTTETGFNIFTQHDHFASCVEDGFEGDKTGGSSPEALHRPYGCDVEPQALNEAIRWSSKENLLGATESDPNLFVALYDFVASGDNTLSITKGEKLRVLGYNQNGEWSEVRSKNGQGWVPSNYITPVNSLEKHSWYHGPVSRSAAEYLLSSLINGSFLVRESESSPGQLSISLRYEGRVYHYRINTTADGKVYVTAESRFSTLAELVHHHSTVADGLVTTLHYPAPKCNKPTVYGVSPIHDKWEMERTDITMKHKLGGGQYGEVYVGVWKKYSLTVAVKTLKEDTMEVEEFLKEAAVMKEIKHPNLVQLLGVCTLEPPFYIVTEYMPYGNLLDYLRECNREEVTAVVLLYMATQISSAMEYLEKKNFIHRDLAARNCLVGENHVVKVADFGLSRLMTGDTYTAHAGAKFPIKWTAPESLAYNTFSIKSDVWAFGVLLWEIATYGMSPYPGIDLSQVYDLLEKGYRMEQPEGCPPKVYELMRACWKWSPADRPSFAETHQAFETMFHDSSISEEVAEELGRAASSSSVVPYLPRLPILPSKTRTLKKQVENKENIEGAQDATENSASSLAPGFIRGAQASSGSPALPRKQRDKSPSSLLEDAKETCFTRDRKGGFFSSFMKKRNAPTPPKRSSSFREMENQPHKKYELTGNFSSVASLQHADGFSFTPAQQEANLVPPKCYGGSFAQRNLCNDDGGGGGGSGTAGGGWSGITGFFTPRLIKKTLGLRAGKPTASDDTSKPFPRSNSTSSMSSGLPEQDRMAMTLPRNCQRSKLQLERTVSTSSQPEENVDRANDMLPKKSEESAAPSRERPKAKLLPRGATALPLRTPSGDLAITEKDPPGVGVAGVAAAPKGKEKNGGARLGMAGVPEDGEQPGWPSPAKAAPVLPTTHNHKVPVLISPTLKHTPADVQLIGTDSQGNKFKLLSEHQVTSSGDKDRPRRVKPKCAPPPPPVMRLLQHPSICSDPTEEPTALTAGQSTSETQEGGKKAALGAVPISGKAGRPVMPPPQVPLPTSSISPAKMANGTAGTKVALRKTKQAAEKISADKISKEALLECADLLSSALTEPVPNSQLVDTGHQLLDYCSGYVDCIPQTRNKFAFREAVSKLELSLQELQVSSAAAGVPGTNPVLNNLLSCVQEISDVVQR

[11] = biological target: Protein kinase C gamma type (Homo sapiens) (UniProt P05129); assay: Inhibition of human truncated PKC gamma expressed in baculovirus assessed as substrate phosphorylation using fluorescence-labelled peptides as substrate at 2 uM after 90 mins by microfluidic peptide phosphorylation assay

C[C@H](CN(C)C)Oc1nc(Nc2cc3cccc(Cl)c3cn2)cnc1C#N
inhibition [1]: 3.5%

CNCc1ccc(-c2ncnc3[nH]cnc23)cc1
inhibition [2]: 48% | inhibition [3]: 64% | inhibition [4]: 64% | inhibition [5]: 42%

NCC1CCN(c2ncnc3[nH]ccc23)CC1
inhibition [6]: 50.5%

c1cnc2[nH]ccc2c1
inhibition [7]: 0%

NC1CCN(c2ncnc3[nH]ccc23)CC1
inhibition [8]: 1.5% | inhibition [9]: 7% | inhibition [10]: 7.5% | inhibition [11]: 57.5%
